Source: patent US20100137449A1, “SUBSTITUTED 1,3-CYCLOPENTADIONE MULTI-TARGET PROTEIN KINASE MODULATORS OF CANCER, ANGIOGENESIS AND THE INFLAMMATORY PATHWAYS ASSOCIATED THEREWITH” (METAPROTEOMICS, LLC, priority 2007, published 2010)

Experiments:
Assay in all cases: KinaseProfiler Assay
[1] = biological target: Pim-2(h) (Homo sapiens, UniProt Q9P1W9)
[2] = biological target: CDK5/p25(h) (Homo sapiens, UniProt Q00535)
[3] = biological target: cKit(D816V)(h) (Homo sapiens, UniProt P10721, D816V)
[4] = biological target: Pim-1(h) (Homo sapiens, UniProt P11309)
[5] = biological target: EGFR(T790M, L858R)(h) (Homo sapiens, UniProt P00533, L858R/T790M)
[6] = biological target: T1, MuSK(h) (Homo sapiens, UniProt O15146)
T1 sequence (O15146 24-869): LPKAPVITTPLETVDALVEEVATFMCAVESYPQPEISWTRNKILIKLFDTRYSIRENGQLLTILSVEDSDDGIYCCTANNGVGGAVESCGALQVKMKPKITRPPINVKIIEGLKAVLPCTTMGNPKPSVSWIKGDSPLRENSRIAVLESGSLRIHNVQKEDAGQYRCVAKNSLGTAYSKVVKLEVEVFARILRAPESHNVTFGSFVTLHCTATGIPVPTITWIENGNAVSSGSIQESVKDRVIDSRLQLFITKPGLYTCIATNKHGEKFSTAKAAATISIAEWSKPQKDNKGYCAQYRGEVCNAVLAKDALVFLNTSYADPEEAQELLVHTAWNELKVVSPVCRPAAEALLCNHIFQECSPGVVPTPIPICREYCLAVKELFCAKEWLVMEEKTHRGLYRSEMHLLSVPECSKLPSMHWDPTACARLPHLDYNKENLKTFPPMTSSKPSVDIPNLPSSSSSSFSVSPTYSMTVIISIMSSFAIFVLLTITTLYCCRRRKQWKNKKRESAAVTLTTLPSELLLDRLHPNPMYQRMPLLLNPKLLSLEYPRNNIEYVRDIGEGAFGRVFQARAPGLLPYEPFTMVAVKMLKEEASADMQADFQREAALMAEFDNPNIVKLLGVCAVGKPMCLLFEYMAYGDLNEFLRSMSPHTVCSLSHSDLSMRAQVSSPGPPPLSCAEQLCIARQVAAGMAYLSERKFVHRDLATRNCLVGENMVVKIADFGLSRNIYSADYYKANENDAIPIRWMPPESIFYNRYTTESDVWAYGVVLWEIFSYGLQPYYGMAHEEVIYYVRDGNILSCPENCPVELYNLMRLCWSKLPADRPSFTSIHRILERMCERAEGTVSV

[7] = biological target: T2, TBK1(h) (Homo sapiens, UniProt Q9UHD2)
T2 sequence (Q9UHD2 1-729): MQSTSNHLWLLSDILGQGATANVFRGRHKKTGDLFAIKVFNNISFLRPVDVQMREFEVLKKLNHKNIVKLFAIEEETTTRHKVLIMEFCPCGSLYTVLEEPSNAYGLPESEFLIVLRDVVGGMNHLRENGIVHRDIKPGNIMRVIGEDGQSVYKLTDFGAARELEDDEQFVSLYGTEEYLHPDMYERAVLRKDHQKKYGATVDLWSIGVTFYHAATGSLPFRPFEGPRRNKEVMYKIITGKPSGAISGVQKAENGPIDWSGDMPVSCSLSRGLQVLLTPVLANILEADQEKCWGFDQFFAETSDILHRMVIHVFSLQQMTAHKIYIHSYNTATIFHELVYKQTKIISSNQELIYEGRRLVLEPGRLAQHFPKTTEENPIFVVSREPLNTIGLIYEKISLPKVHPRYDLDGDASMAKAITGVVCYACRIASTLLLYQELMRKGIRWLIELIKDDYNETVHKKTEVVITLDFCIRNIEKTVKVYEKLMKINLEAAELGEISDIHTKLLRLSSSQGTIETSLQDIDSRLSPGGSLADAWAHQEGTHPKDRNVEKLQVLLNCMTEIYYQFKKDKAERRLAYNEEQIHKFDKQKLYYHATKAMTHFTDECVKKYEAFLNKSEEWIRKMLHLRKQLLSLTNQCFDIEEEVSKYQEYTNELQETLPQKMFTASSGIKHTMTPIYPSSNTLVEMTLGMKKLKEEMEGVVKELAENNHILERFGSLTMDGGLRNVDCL

Sequence of EGFR(T790M, L858R)(h) (P00533 25-1210 T790M/L858R): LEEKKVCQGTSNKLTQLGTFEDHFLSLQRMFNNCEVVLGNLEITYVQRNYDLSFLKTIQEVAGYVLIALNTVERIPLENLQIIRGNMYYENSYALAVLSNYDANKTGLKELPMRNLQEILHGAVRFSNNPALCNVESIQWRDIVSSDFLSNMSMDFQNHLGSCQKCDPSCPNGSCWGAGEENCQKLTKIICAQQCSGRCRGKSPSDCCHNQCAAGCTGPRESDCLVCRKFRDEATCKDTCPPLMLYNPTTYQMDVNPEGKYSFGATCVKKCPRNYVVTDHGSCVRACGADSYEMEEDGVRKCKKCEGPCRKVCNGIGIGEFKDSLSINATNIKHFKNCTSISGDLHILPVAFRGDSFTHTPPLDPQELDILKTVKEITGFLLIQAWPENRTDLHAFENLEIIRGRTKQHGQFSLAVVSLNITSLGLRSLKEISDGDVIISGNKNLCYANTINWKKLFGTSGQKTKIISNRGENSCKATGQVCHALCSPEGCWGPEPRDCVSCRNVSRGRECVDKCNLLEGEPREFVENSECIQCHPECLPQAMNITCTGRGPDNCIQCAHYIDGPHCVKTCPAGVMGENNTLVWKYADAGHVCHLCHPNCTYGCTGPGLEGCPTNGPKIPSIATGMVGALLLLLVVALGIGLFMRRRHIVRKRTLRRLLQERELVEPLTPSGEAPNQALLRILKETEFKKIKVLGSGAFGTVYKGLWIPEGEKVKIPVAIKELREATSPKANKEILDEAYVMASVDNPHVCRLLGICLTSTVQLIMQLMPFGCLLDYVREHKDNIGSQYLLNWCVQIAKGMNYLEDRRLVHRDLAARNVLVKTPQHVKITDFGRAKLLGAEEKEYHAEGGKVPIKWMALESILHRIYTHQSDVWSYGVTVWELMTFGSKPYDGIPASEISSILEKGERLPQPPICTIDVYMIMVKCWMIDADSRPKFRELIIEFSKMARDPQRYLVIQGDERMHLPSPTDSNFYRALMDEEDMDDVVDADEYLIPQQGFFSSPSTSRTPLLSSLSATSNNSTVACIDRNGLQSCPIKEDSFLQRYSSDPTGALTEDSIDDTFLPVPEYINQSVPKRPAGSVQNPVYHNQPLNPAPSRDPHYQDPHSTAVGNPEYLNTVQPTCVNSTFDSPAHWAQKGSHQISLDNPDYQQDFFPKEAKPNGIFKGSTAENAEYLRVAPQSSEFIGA
Sequence of Pim-2(h) (Q9P1W9 whole entry): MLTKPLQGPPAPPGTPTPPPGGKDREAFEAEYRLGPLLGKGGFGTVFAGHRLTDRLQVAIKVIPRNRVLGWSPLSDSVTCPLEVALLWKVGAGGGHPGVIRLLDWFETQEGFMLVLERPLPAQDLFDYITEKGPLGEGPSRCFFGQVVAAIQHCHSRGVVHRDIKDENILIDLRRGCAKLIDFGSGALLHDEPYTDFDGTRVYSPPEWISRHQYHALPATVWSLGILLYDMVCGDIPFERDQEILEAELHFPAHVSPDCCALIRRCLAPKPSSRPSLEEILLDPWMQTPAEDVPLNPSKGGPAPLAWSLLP
Sequence of CDK5/p25(h) (Q00535 whole entry): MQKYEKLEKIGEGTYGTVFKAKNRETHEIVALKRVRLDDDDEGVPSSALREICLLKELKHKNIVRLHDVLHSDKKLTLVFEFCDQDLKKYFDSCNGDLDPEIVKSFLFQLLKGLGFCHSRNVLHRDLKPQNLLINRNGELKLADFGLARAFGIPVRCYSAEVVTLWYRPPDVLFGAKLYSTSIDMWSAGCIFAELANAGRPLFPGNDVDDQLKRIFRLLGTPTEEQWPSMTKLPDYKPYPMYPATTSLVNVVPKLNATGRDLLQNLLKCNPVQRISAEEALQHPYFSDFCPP
Sequence of CDK5/p25(h) (Q15078 99-307 partner limits assumed): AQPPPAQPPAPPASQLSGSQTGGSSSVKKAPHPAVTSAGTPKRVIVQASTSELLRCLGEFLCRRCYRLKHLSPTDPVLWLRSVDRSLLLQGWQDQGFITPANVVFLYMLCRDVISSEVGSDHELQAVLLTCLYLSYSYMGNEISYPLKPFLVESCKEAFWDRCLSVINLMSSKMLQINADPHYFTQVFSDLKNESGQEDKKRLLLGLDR
Sequence of Pim-1(h) (P11309 whole entry): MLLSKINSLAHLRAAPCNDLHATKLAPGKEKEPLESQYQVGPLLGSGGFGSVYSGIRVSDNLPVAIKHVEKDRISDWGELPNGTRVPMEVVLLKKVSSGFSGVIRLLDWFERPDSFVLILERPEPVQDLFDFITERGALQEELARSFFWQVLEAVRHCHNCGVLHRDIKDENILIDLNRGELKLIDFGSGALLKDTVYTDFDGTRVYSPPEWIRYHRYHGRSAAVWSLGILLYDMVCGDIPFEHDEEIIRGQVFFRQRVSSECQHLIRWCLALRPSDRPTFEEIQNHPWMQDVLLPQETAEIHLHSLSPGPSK
Sequence of cKit(D816V)(h) (P10721 26-976 D816V): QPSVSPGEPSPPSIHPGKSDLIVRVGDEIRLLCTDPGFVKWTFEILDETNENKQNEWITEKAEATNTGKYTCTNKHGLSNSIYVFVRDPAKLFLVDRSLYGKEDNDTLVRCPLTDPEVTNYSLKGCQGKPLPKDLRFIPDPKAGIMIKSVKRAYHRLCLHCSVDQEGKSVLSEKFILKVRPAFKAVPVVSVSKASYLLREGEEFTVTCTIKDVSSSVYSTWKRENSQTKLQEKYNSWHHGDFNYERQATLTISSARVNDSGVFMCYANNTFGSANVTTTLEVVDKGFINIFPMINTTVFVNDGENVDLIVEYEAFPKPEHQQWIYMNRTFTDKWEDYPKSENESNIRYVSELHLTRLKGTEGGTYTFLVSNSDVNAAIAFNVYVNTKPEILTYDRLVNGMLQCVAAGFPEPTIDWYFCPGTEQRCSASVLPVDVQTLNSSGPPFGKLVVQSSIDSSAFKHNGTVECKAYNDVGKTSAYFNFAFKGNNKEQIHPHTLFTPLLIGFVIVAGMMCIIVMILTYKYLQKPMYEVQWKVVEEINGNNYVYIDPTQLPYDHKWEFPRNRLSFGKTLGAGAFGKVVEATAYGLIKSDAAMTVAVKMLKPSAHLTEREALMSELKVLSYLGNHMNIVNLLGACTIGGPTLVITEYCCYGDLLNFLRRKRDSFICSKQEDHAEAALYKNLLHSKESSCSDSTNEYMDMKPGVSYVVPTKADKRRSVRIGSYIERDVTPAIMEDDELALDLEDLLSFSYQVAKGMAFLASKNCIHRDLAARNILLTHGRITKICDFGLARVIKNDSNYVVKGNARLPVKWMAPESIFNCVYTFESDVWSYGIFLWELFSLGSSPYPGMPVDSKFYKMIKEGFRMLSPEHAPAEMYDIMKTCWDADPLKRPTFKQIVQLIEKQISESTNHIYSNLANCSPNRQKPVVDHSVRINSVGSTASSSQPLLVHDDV

In the case of `CC(C)CCC(=O)[C@]1(O)C(O)=C(C(=O)C(C)C)C(=O)[C@H]1CCC(C)C` [TH2, tetrahydroiso-cohumulone], the kinase inhibition ([1]; 1 μg/ml) is reported as 103% of control, the kinase inhibition ([1]; 5 μg/ml) is reported as 111% of control and the kinase inhibition ([1]; 25 μg/ml) is reported as 77% of control. The kinase inhibition ([1]; 50 μg/ml) was 73% of control, the kinase inhibition ([1]; 100 μg/ml) was 67% of control and the kinase inhibition ([2]; 1 μg/ml) was 93% of control. The kinase inhibition ([2]; 5 μg/ml) was 96% of control, the kinase inhibition ([2]; 25 μg/ml) was 103% of control and the kinase inhibition ([2]; 50 μg/ml) was 88% of control. The kinase inhibition ([2]; 100 μg/ml) was 77% of control, the kinase inhibition ([3]; 1 μg/ml) was 109% of control and the kinase inhibition ([3]; 5 μg/ml) was 105% of control. The kinase inhibition ([3]; 25 μg/ml) was 98% of control, the kinase inhibition ([3]; 50 μg/ml) was 82% of control and the kinase inhibition ([3]; 100 μg/ml) was 87% of control. The kinase inhibition ([4]; 1 μg/ml) was 86% of control, the kinase inhibition ([4]; 5 μg/ml) was 100% of control and the kinase inhibition ([4]; 25 μg/ml) was 87% of control. For the same compound, the kinase inhibition ([4]; 50 μg/ml) was 84% of control, the kinase inhibition ([4]; 100 μg/ml) was 55% of control and the kinase inhibition ([5]; 1 μg/ml) was 104% of control. The kinase inhibition ([5]; 5 μg/ml) was 109% of control, the kinase inhibition ([5]; 25 μg/ml) was 95% of control and the kinase inhibition ([5]; 50 μg/ml) was 94% of control. The kinase inhibition ([5]; 100 μg/ml) was 82% of control, the kinase inhibition ([6]; 1 μg/ml) was 104% of control and the kinase inhibition ([6]; 5 μg/ml) was 101% of control. For the same compound, the kinase inhibition ([6]; 25 μg/ml) was 99% of control, the kinase inhibition ([6]; 50 μg/ml) was 98% of control and the kinase inhibition ([6]; 100 μg/ml) was 97% of control. The kinase inhibition ([7]; 1 μg/ml) was 108% of control, the kinase inhibition ([7]; 5 μg/ml) was 107% of control and the kinase inhibition ([7]; 25 μg/ml) was 97% of control. The kinase inhibition ([7]; 50 μg/ml) was 86% of control and the kinase inhibition ([7]; 100 μg/ml) was 70% of control.
